Data: patent EP2508526A1, “Spiroalkene carboxamide derivatives and their use as chemokine receptor modulators” (Ares Trading SA, priority 2011, dated 2012)
Where a name gives a salt, the structure may show the parent alone.

molecular target: T1, hCCR2b (Homo sapiens, UniProt P41597); assay: CCR2 binding assay ([125I]MCP-1, SPA, CHO cell membranes); set-up: expressed in transfected cells; host or cells: CHO cells (membrane preparation); conditions: membranes from CHO cells expressing hCCR2b, 50 pM [125I]MCP-1; read-out: Binding hCCR2 (Ki)
T1 sequence (P41597 1-360 isoform P41597-2): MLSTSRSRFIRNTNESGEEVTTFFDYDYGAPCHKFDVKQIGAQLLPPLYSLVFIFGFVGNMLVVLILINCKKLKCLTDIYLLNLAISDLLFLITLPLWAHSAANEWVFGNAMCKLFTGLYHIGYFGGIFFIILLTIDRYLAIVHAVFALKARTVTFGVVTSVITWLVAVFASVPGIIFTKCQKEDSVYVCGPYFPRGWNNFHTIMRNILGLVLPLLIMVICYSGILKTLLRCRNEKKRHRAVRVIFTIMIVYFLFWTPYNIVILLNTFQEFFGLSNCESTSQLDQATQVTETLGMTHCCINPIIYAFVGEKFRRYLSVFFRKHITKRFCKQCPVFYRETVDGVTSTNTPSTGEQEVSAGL
Description: Membranes were prepared from CHO cells expressing mCCR2b or hCCR2b for use in ligand binding studies. Cells were suspended in 50mM Tris-HCL, pH 7.4, 2 mM EDTA, 250 mM Sucrose and 1x Complete EDTA-free protease inhibitor cocktail (Roche) (Buffer A), and disrupted at 4°C by N2 decompression using a cell disruption bomb (Parr Instrument). Following centrifugation at 200 RCF for 10 min at 4°C, the supernatant was suspended in buffer A and centrifuged again at 19000 RPM (RCSC rotor SS34 code 05 Sorvall Instruments DUPONT) for 90 min at 4°C. The pellet was then suspended in 10 mM HEPES, pH 7.4, 1 mM EDTA, 250 mM Sucrose, and 1x Complete EDTA-free protease inhibitor cocktail (Buffer B) and homogenized using a potter. Membranes were flash frozen in liquid N2 and stored at -80°C. [125I] Monocyte Chemoattractant Protein -1 (MCP-1) (25µCi; Perkin Elmer) was added to test compounds in DMSO (1% final). Membranes and WGA SPA beads (GE Healthcare) were added to give a final volume of 100 µl in 96-well plates with assay concentrations of 50 pM or 100 pM [125I]Monocyte Chemoattractant Protein -1 (respectively for hCCR2b or mCCR2b), 50 mM HEPES, pH 7.4, 5 mM MgCl2, 1 mM CaCl2, 0.1% BSA, 1-5 µg/well of membranes and 100 µg/well of WGA SPA beads. Binding was performed for 90 min at RT with strong agitation of speed 5 (Heidolph Titramax 100 SCITEC) and bound radioactivity was measured on a PerkinElmer 1450 MicroBeta counter. Specific binding was calculated by subtracting remaining radioactivity in the presence of 1000-fold excess of unlabeled compound. Binding data were analyzed using the Genedata Screener® software.

SMILES | Ki [nM]
CCN1CCC2(CC1)OC(=O)C(C)=C2C(=O)N1CCN(c2ccc(C(F)(F)F)cc2)CC1 [Compound 113, 8-ethyl-3-methyl-4-({4-[4-(trifluoromethyl)phenyl]piperazin-1-yl}carbonyl)-1-oxa-8-azaspiro[4.5]dec-3-en-2-one] | 500 to 2000
CC1=C(C(=O)N2CCN(c3cccc(C(F)(F)F)c3)CC2)C2(CCN(CC(C)c3ccccc3)CC2)OC1=O (stereo not shown) [Compound 105, 3-methyl-8-(2-phenylpropyl)-4-({4-[3-(trifluoromethyl)phenyl]piperazin-1-yl}carbonyl)-1-oxa-8-azaspiro[4.5]dec-3-en-2-one] | < 50
CC1=C(C(=O)N2CCc3ncc(C(F)(F)F)cc3C2)C2(CCN(C(C)C)CC2)OC1=O [Compound 115, 8-isopropyl-3-methyl-4-{[3-(trifluoromethyl)-7,8-dihydro-1,6-naphthyridin-6(5H)-yl]carbonyl}-1-oxa-8-azaspiro[4.5]dec-3-en-2-one] | < 50
CCN1CCC2(CC1)OC(=O)C(C)=C2C(=O)N1CCC(c2cccc(C(F)(F)F)c2)C1 (stereo not shown) [Compound 55, 8-ethyl-3-methyl-4-({3-[3-(trifluoromethyl)phenyl]pyrrolidin-1-yl}carbonyl)-1-oxa-8-azaspiro[4.5]dec-3-en-2-one] | 100 to 500
CC1=C(C(=O)N2CCc3ncc(C(F)(F)F)cc3C2)C2(CCN(C3CCOC(C)C3)CC2)OC1=O (stereo not shown) [Compound 47, 3-methyl-8-(2-methyltetrahydro-2H-pyran-4-yl)-4-{[3-(trifluoromethyl)-7,8-dihydro-1,6-naphthyridin-6(5H)-yl]carbonyl}-1-oxa-8-azaspiro[4.5]dec-3-en-2-one] | < 50
CCN1CCC2(CC1)OC(=O)C(C)=C2C(=O)N1CCN(c2ccc(OC(F)(F)F)cc2)CC1 [Compound 93, 8-ethyl-3-methyl-4-({4-[4-(trifluoromethoxy)phenyl]piperazin-1-yl}carbonyl)-1-oxa-8-azaspiro[4.5]1dec-3-en-2-one] | 100 to 500
COc1ccc(CCN2CCC3(CC2)OC(=O)C(C)=C3C(=O)N2CCN(c3cccc(C(F)(F)F)c3)CC2)cc1 [Example 6, 8-[2-(4-methoxyphenyl)ethyl]-3-methyl-4-({4-[3-(trifluoromethyl)phenyl]piperazin-1-yl]carbonyl)-1-oxa-8-azaspiro[4.5]dec-3-en-2-one, dihydrochloride salt] | < 50
CCN1CCC2(CC1)OC(=O)C(C)=C2C(=O)N1CCN(c2cc(Cl)cc(C(F)(F)F)c2)CC1 [Compound 86, 4-({4-[3-chloro-5-(trifluoromethyl)phenyl]piperazin-1-yl}carbonyl)-8-ethyl-3-methyl-1-oxa-8-azaspiro[4.5]dec-3-en-2-one] | < 50
COc1ccccc1CCN1CCC2(CC1)OC(=O)C(C)=C2C(=O)N1CCN(c2cccc(C(F)(F)F)c2)CC1 [Compound 63, 8-[2-(2-methoxyphenyl)ethyl]-3-methyl-4-({4-[3-(trifluoromethyl)phenyl]piperazin-1-yl}carbonyl)-1-oxa-8-azaspiro[4.5]dec-3-en-2-one] | < 50
CCN1CCC2(CC1)OC(=O)C(C)=C2C(=O)Nc1ccc(-n2ccc(C(F)(F)F)n2)cc1 [Compound 75, 8-ethyl-3-methyl-2-oxo-N-{4-[3-(trifluoromethyl)-1H-pyrazol-1-yl]phenyl}-1-oxa-8-azaspiro[4.5]dec-3-ene-4-carboxamide] | 500 to 2000
CC1=C(C(=O)N2CCN(c3cccc(C(F)(F)F)c3)CC2)C2(CCN(CCc3ccccc3)CC2)OC1=O [Compound 102, 3-methyl-8-(2-phenylethyl)-4-({4-[3-(trifluoromethyl)phenyl]piperazin-1-yl}carbonyl)-1-oxa-8-azaspiro[4.5]dec-3-en-2-one] | < 50
COCCN1CCC2(CC1)OC(=O)C(C)=C2C(=O)N1CCc2ccc(C(F)(F)F)cc2C1 [Compound 16, 8-(2-methoxyethyl)-3-methyl-4-{[7-(trifluoromethyl)-3,4-dihydroisoquinolin-2(1H)-yl]carbonyl}-1-oxa-8-azaspiro[4.5]dec-3-en-2-one] | < 50
CC1=C(C(=O)N2CCc3ccc(C(F)(F)F)cc3C2)C2(CCN(C3CCS(=O)(=O)CC3)CC2)OC1=O [Compound 37, 8-(1,1-dioxidotetrahydro-2H-thiopyran-4-yl)-3-methyl-4-{[7-(trifluoromethyl)-3,4-dihydroisoquinolin-2(1H)-yl]carbonyl}-1-oxa-8-azaspiro[4.5]dec-3-en-2-one] | 50 to 100
CCN1CCC2(C1)OC(=O)C(C)=C2C(=O)N1CCc2ccc(C(F)(F)F)cc2C1 (stereo not shown) [Compound 42, 7-ethyl-3-methyl-4-{[7-(trifluoromethyl)-3,4-dihydroisoquinolin-2(1H)-yl]carbonyl}-1-oxa-7-azaspiro[4.4]non-3-en-2-one] | < 50
CCN1CCC2(CC1)OC(=O)C(C)=C2C(=O)N1CCN(c2cncc(C(F)(F)F)c2)CC1 [Compound 60, 8-ethyl-3-methyl-4-({4-[5-(trifluoromethyl)pyridin-3-yl]piperazin-1-yl}carbonyl)-1-oxa-8-azaspiro[4.5]dec-3-en-2-one] | 50 to 100
CCN1CCC2(CC1)OC(=O)C(C)=C2C(=O)N1CCc2ccc(F)cc2C1 [Compound 53, 8-ethyl-4-[(7-fluoro-3,4-dihydroisoquinolin-2(1H)-yl)carbonyl]-3-methyl-1-oxa-8-azaspiro[4.5]dec-3-en-2-one] | 100 to 500
COCCCN1CCC2(CC1)OC(=O)C(C)=C2C(=O)N1CCc2ccc(C(F)(F)F)cc2C1 [Compound 18, 8-(3-methoxypropyl)-3-methyl-4-{[7-(trifluoromethyl)-3,4-dihydroisoquinolin-2(1H)-yl]carbonyl}-1-oxa-8-azaspiro[4.5]dec-3-en-2-one] | < 50
CC1=C(C(=O)N2CCN(c3cccc(C(F)(F)F)c3)CC2)C2(CCN(C3CCCCC3)CC2)OC1=O [Compound 106, 8-cyclohexyl-3-methyl-4-({4-[3-(trifluoromethyl)phenyl]piperazin-1-yl}carbonyl)-1-oxa-8-azaspiro[4.5]dec-3-en-2-one] | < 50
CC1=C(C(=O)N2CCc3ccc(C(F)(F)F)cc3C2)C2(CCNCC2)OC1=O [Compound 76, 3-methyl-4-{[7-(trifluoromethyl)-3,4-dihydroisoquinolin-2(1H)-yl]carbonyl}-1-oxa-8-azaspiro[4.5]dec-3-en-2-one, hydrocloride salt] | < 50
CC1=C(C(=O)N2CCc3ccc(C(F)(F)F)cc3C2)C2(CCN(C3CCOC(C)C3)CC2)OC1=O (stereo not shown) [Compound 36, 3-methyl-8-(2-methyltetrahydro-2H-pyran-4-yl)-4-{[7-(trifluoromethyl)-3,4-dihydroisoquinolin-2(1H)-yl]carbonyl}-1-oxa-8-azaspiro[4.5]dec-3-en-2-one] | < 50
CC1=C(C(=O)N2CCc3ccc(C(F)(F)F)cc3C2)C2(CCN(C3CCCC3)CC2)OC1=O [Compound 30, 8-cyclopentyl-3-methyl-4-{[7-(trifluoromethyl)-3,4-dihydroisoquinolin-2(1H)-yl]carbonyl}-1-oxa-8-azaspiro[4.5]dec-3-en-2-one] | < 50
CC1=C(C(=O)N2CCN(c3cccc(C(F)(F)F)c3)CC2)C2(CCN(CCC(=O)O)CC2)OC1=O [Compound 10, 3-[3-methyl-2-oxo-4-({4-[3-(trifluoromethyl)phenyl]piperazin-1-yl}carbonyl)-1-oxa-8-azaspiro[4.5]dec-3-en-8-yl]propanoic acid] | 100 to 500
CCN1CCC2(CC1)OC(=O)C(C)=C2C(=O)N1C[C@@H]2C[C@H]1CN2c1cc(C(F)(F)F)ccn1 [Compound 71, 8-ethyl-3-methyl-4-({(1S,4S)-5-[4-(trifluoromethyl)pyridin-2-yl]-2,5-diazabicyclo[2.2.1]hept-2-yl}carbonyl)-1-oxa-8-azaspiro[4.5]dec-3-en-2-one] | < 50
CCN1CCC2(CC1)OC(=O)C(C)=C2C(=O)N1C[C@@H]2C[C@H]1CN2c1nccc(C(F)(F)F)n1 [Compound 72, 8-ethyl-3-methyl-4-({(1S,4S)-5-[4-(trifluoromethyl)pyrimidin-2-yl]-2.5-diazabicyclo[2.2.1]hept-2-yl}carbonyl)-1-oxa-8-azaspiro[4.5]dec-3-en-2-one] | < 50
CCN1CCC2(CC1)OC(=O)C(C)=C2C(=O)NCC(=O)Nc1cccc(C(F)(F)F)c1 [Compound 56, 8-ethyl-3-methyl-2-oxo-N-(2-oxo-2-{[3-(trifluoromethyl)phenyl]amino}ethyl)-1-oxa-8-azaspiro[4.5]dec-3-ene-4-carboxamide] | < 50
